Like-named read-outs stand apart in the source and are kept apart here.

Results on ten compounds are retold here after patent US7060699B2, “Aryl and heteroaryl diazabicycloalkanes, their preparation and use” (priority 2000, dated 2006).

One assay addresses T1, serotonin transporter (Rattus norvegicus, UniProt P31652).
T1 construct: Cerebral cortices from male Wistar rats (150–200 g) are homogenized; from tissue; host or cells: rat cerebral cortex synaptosomes (P2 pellet)
As to the kind of experiment: In vitro inhibition of 3H-5-hydroxytryptamine (3H-5-HT, serotonin) uptake in cortical synaptosomes. It is filed as biochemical. Here is the method:
In Vitro Inhibition of ^3H-5-hydroxytryptamine (^3H-5-HT, Serotonin) Uptake in Cortical Synaptosomes
Serotonin transporters/uptake sites on nerve terminals presumably function to terminate neuronal signaling by removing serotonin from the synaptic cleft. The activity of the serotonin transporter integral protein can be measured in vitro by synaptosomal uptake of ^3H-5-hydroxytryptamine.
Preparations are performed at 0–4° C. unless otherwise indicated. Cerebral cortices from male Wistar rats (150–200 g) are homogenized for 5–10 sec in 100 volumes of ice-cold 0.32M sucrose containing 1 mM pargyline using a motor driven teflon pestle in a glass homogenizing vessel. Monoamine oxidase activity will be inhibited in the presence of pargyline. The homogenate is centrifuged at 1000×g for 10 min. The resulting supernatant is then centrifuged at 27,000×g for 50 min and the supernatant is discarded.
Aliquots of 4.0 ml tissue suspension are added to 100 µl of test solution and 100 μl of ^3H-5-HT (1 nM, final concentration), mixed and incubated for 30 min at 37° C. Non-specific uptake is determined using citalopram (1 μM, final concentration). After incubation the samples are poured directly onto Whatman GF/C glass fibre filters under suction. The filters are then washed three times with 5 ml of ice-cold 0.9% (w/v) NaCl solution. The amount of radioactivity on the filters is determined by conventional liquid scintillation counting. Specific uptake is calculated as the difference between total uptake and non-specific uptake.
where C0 is specific binding in control assays and Cx is the specific binding in the test assay (the calculations assume normal mass-action kinetics).

The target of assay [1] is nAChR comprised of α4 and β2 subunits (Rattus norvegicus, UniProt P09483+P12390). As to the kind of experiment: In vitro inhibition of 3H-cytisine binding.
The target in assay [2] is nAChR formed by the α7 subunit isoform (Rattus norvegicus, UniProt Q05941). As to the kind of experiment: biochemical. It is filed as binding.
Setting [3] is: cerebral cortex homogenate from male Wistar rats, 3H-cytisine 1 nM, 90 min at 2° C., read-out: 3H-cytisine binding IC50.

T1 sequence (P31652 whole entry): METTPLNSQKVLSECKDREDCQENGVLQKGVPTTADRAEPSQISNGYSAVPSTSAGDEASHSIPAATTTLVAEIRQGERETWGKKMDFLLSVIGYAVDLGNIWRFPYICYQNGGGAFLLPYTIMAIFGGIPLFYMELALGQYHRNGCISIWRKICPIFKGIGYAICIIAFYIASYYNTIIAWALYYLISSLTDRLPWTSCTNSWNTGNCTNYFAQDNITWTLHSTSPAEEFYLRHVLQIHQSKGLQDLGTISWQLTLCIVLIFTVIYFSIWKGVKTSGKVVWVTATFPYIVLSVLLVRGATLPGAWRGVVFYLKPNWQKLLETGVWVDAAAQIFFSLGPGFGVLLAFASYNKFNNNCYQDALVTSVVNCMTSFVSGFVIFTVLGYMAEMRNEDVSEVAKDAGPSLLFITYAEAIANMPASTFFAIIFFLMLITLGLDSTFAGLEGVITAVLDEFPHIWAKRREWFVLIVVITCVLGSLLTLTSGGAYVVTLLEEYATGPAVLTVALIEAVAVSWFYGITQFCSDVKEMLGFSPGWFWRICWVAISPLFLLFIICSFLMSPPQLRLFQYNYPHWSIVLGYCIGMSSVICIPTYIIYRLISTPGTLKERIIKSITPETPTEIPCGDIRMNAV
Chain of nAChR comprised of α4 and β2 subunits (P09483 31-630): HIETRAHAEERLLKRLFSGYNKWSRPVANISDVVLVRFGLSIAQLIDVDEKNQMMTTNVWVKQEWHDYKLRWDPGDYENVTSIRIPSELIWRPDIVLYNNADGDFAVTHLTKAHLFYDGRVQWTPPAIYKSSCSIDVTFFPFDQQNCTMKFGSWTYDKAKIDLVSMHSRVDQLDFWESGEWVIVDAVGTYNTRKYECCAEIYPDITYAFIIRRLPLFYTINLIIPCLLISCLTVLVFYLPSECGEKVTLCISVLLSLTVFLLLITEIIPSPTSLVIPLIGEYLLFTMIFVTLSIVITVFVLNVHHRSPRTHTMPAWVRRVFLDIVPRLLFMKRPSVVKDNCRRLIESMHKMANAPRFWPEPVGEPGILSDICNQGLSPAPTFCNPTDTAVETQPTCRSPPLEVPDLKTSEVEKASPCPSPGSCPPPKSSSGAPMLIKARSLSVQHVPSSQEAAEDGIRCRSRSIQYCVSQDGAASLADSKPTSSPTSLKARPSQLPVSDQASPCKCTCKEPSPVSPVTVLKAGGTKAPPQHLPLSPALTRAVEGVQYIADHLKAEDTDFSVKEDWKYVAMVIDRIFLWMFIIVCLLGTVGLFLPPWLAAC
Chain of nAChR comprised of α4 and β2 subunits (P12390 25-500): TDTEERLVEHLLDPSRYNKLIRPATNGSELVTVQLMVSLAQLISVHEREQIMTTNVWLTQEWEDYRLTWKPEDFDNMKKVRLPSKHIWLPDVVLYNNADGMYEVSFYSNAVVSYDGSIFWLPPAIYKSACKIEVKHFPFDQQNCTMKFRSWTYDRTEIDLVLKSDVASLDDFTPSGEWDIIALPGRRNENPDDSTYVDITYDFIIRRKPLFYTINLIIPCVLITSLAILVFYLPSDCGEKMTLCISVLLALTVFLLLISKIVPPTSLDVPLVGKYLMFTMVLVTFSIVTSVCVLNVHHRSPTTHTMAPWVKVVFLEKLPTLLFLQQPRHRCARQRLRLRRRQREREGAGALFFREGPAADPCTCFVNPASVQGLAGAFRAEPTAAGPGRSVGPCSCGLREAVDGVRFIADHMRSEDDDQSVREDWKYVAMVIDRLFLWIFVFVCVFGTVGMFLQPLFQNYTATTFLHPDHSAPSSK
Chain of nAChR formed by the α7 subunit isoform (Q05941 23-502): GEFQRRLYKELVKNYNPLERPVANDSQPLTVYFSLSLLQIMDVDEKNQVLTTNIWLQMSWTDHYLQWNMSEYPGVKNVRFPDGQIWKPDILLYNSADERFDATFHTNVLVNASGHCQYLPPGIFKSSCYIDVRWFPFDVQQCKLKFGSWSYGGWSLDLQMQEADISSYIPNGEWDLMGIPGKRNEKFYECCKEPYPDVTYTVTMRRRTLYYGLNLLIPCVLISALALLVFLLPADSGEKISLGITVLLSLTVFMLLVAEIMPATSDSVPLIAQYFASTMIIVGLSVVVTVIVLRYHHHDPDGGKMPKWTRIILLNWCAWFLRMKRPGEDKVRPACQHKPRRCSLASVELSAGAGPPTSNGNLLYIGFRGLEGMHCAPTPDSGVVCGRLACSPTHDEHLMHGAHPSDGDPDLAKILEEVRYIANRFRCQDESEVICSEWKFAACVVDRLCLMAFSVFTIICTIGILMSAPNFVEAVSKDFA

As usually defined, the IC50 is the midpoint of a concentration-inhibition curve. In the case of `CN1C2CCC1CN(c1ccc3ccccc3c1)CC2` (racemic) [Compound 1, (±) 3-(2-Naphthalyl)-9-methyl-3,9-diazabicyclo-[4.2.1]-nonane], the midpoint of inhibition at serotonin transporter, the IC50, lay at 40 nM.

On to `CN1C2CCC1CN(c1ccc3ccccc3n1)CC2` (racemic) [Compound 2, (±) 3-(2-Quinolinyl)-9-methyl-3,9-diazabicyclo-[4.2.1]-nonane], for which half-maximal inhibition at serotonin transporter (IC50) was put at 13 nM.

The compound `CN1C2CCC1CN(c1ccc(Cl)c(Cl)c1)CC2` (racemic) [Compound A1, (±) 3-(3,4-Dichlorophenyl)-9-methyl-3,9-diazabicyclo-[4.2.1]-nonane] had an IC50 at serotonin transporter of 32 nM.

`c1ccc2ncc(N3CCC4CCC(C3)N4)cc2c1` (racemic) [Compound B5, (±) 3-(3-Quinolinyl)-9-H-3,9-diazabicyclo-[4.2.1]-nonane] registered an IC50 against serotonin transporter of 49 nM.

In the case of `CN1C2CCC1CN(c1cncc(OCCOc3cncc(N4CCC5CCC(C4)N5C)c3)c1)CC2` (racemic) [Compound B7, (±) O,O′-bis-[5-(9-Methyl-3,9-diazabicyclo-[4.2.1]-nonan-3-yl)-3-pyridyl]-ethyleneglycol], the IC50 in assay [1] is 13 nM; in assay [2], more than 10000 nM.

As to `CN1C2CCC1CN(c1ccc(-c3ccccc3)nn1)CC2` (racemic) [Compound C2, (±) 3-(6-Phenyl-3-pyridazinyl)-9-methyl-3,9-diazabicyclo-[4.2.1]-nonane], the IC50 in assay [1] (setting [3]) is more than 10000 nM; in assay [2] it was 410 nM.

Compound `CN1C2CCC1CN(c1ccc3cc([N+](=O)[O-])ccc3n1)CC2` (racemic) [Compound C3, (±) 3-(6-Nitro-2-quinolinyl)-9-methyl-3,9-diazabicyclo-[4.2.1]-nonane] showed an IC50 on serotonin transporter of 3.7 nM.

For `Cc1ccccc1-c1ccc(N2CCC3CCC(C2)N3C)cn1` (racemic) [Compound F1, (±) 3-[6-(2-Toluyl)-3-pyridyl]-9-methyl-3,9-diazabicyclo-[4.2.1]-nonane], the IC50 in assay [1] is 99 nM; in assay [2] it was 5500 nM.

As to `CN1C2CCC1CN(c1ccc(-c3ccsc3)nc1)CC2` (racemic) [Compound F5, (±) 3-[6-(3-Thienyl)-3-pyridyl]-9-methyl-3,9-diazabicyclo-[4.2.1]-nonane], the IC50 was 1500 nM in assay [1] (setting [3]) and 280 nM in assay [2].

Regarding `CN1CCC2CCC(C1)N2c1ccc(-c2ccccc2)nn1` (racemic) [Compound F10, (±) 3-Methyl-9-(6-phenyl-3-pyridazinyl)-3,9-diazabicyclo-[4.2.1]-nonane], the figures for the concentration for half-maximal inhibition (IC50) in assay [1] (setting [3]) and in assay [2] were 27000 nM and 800 nM, respectively.
